Where two headings read alike, the source gives them in different places.
Assays:
Format in all cases: biochemical
NDM-1 = NDM-1 (Klebsiella pneumoniae, UniProt C7C422); test: NDM-1 inhibition assay with nitrocefin as substrate
Experimental: The screened seven compounds were dissolved in 100% DMSO at 10 mM. More diluted stocks were prepared as necessary. NDM-1 activity was determined by monitoring the change of absorbance at 482 nm using the characteristic molecular extinction coefficient (Δε482=15,900 M^−1 cm^−1) of nitrocefin (NCF) (Oxoid, Hampshire, UK) by a Shimazu UV-1650PC spectrophotometer. Up to 5% DMSO, no influence on the enzyme activities of MBLs was observed. The assays were conducted in 50 mM MES (pH 7.0) containing an enzyme (263 nM), 100 μM ZnCl2, and 100 μg/mL bovine serum albumin. After 5 min of pre-incubation of the purified enzyme and inhibitor at 30° C., the enzymatic reaction was started by adding nitrocefin (100 μM). Residual velocities were determined after 5 minutes. The first 120 s of each reaction was used to measure initial rates. Data were evaluated using Microsoft Excel. Concentration-dependent inhibition of NDM-1 was measured using different concentrations of seven compounds resulting from two-fold dilution series. Reaction progress at every concentration of seven compounds was measured in triplicates. IC50 values were calculated using 4-parameter log fits using XL Fit curve fitting software (www.idbs.com) for Excel using the following equation: […]
where y is the remaining enzyme activity (in %) and x is the corresponding concentration. The fitted IC50 parameter is defined as the concentration giving a response half way between the fitted top (B) and bottom (A) of the curve. […]
To investigate the inhibitory effects of novel compounds (DCPBA, ACP-DCPBA, and CHP-DCPBA) against four clinically-important subclass B1 MBLs (NDM-1, IMP-1, VIM-2, and GIM-1), subclass B2 MBL (CphA), and subclass B3 MBL (GOB-1), the IC50 values for them were determined (Table 4). […] Activities of MBLs were determined by monitoring the change of absorbance at 482 nm. […] Data were evaluated using Microsoft Excel. Reaction progress at every concentration of DCPBA (ACP-DCPBA or CHP-DCPBA) was measured in triplicates.

IMP-1 = IMP-1 (Serratia marcescens, UniProt P52699); test: IMP-1 inhibition assay with nitrocefin as substrate; details: Subclass B1 MBL, enzyme 891 nM, 100 μM nitrocefin, 5 minute pre-incubation
Sequence of IMP-1 (P52699 21-246 limits assumed): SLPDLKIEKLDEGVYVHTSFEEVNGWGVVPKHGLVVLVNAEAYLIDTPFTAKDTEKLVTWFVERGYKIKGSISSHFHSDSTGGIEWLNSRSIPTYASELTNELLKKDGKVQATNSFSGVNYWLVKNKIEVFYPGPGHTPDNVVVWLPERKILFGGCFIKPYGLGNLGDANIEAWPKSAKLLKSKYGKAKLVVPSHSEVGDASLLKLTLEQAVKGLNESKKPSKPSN
From the text: (§1) The blaNDM-1 gene (GenBank ID: FN396876) from K. pneumoniae clinical isolate, blaIMP-1 gene (GenBank ID: S71932) from Acinetobacter baumannii clinical isolate, and blaVIM-2 gene (GenBank ID: AF191564) from Citrobacter freundii clinical isolate were cloned after PCR amplification with primer pairs (Table 3) and then sequenced. Those three clinical isolates were collected from a university hospital in the Republic of Korea. Three DNA templates encoding blaGIM-1 gene (GenBank ID: AJ620678), blacphA gene (GenBank ID: X57102), and blaGOB-1 gene (GenBank ID: AF090141), which are codon optimized for E. coli, were synthesized and purchased from IDT (Integrated DNA Technologies, Coralville, Iowa, USA). The DNA templates were amplified by PCR using suitable primer pairs (Table 3). The amplified DNA and pET-30a(+) vector (Novagen, Madison, Wis., USA) were double-digested with NdeI and XhoI, with digested DNA then ligated into the digested vector. After verifying the DNA sequences, the plasmids, pET-30a(+)/His6-blaNDM-1, pET-30a(+)/His6-blaIMP-1, pET-30a(+)/His6-blaVIM-2, pET-30a(+)/His6-blaGIM-1, pET-30a(+)/His6-blacphA, and pET-30a(+)/His6-blaGOB-1 were individually transformed into E. coli BL21 (DE3) cells. Each of the histidine-tagged proteins, NDM-1, IMP-1, VIM-2, GIM-1, CphA, and GOB-1 were prepared as previously described (Park, et al., J. Glob. Antimicrob. Resist., 14, 302-305 (2018)).
(§2) To investigate the inhibitory effects of novel compounds (DCPBA, ACP-DCPBA, and CHP-DCPBA) against four clinically-important subclass B1 MBLs (NDM-1, IMP-1, VIM-2, and GIM-1), subclass B2 MBL (CphA), and subclass B3 MBL (GOB-1), the IC50 values for them were determined (Table 4). Compounds (DCPBA, ACP-DCPBA, and CHP-DCPBA) were dissolved in 100% DMSO at 10 mM. Activities of MBLs were determined by monitoring the change of absorbance at 482 nm. Up to 5% DMSO, no influence on the enzyme activities of MBLs was observed. […] Data were evaluated using Microsoft Excel. Reaction progress at every concentration of DCPBA (ACP-DCPBA or CHP-DCPBA) was measured in triplicates.

VIM-2 = VIM-2 (Pseudomonas aeruginosa, UniProt Q9K2N0); test: VIM-2 inhibition assay with nitrocefin as substrate
From the text: as §1, §2

GIM-1 = GIM-1 (Pseudomonas aeruginosa, UniProt Q704V1); test: GIM-1 inhibition assay with nitrocefin as substrate
Sequence of GIM-1 (Q704V1 19-250): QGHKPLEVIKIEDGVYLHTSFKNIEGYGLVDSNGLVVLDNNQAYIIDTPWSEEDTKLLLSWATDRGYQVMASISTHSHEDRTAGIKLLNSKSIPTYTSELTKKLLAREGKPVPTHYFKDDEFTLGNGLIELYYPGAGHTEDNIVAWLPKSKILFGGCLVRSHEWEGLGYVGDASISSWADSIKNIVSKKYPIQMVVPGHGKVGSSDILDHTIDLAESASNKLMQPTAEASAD
From the text: as §1, §2

CphA = CphA (Aeromonas hydrophila, UniProt P26918); test: CphA inhibition assay with nitrocefin as substrate; details: for IC50 of CphA relative to that for DCPBA: fold lower than DCPBA
Sequence of CphA (P26918 28-254): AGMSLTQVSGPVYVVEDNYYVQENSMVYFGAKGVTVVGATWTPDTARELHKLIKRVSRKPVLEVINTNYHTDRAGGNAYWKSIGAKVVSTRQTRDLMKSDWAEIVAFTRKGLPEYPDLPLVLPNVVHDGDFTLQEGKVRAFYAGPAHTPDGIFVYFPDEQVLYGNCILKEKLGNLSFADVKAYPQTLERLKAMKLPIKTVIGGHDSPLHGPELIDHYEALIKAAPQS
From the text: as §1
To investigate the inhibitory effects of novel compounds (DCPBA, ACP-DCPBA, and CHP-DCPBA) against four clinically-important subclass B1 MBLs (NDM-1, IMP-1, VIM-2, and GIM-1), subclass B2 MBL (CphA), and subclass B3 MBL (GOB-1), the IC50 values for them were determined (Table 4). Compounds (DCPBA, ACP-DCPBA, and CHP-DCPBA) were dissolved in 100% DMSO at 10 mM. Activities of MBLs were determined by monitoring the change of absorbance at 482 nm. Up to 5% DMSO, no influence on the enzyme activities of MBLs was observed. Each enzyme (NDM-1, 263 nM; IMP-1, 891 nM; VIM-2, 81 nM; GIM-1, 662 nM; CphA, 157 nM; GOB-1, 2.69 μM) was mixed with 100 μM nitrocefin after a 5 minute pre-incubation with compounds (DCPBA, ACP-DCPBA, and CHP-DCPBA). The first 120 s of each reaction was used to measure initial rates. Data were evaluated using Microsoft Excel. Reaction progress at every concentration of DCPBA (ACP-DCPBA or CHP-DCPBA) was measured in triplicates.

GOB-1 = GOB-1 (Elizabethkingia meningoseptica, UniProt Q9RB00); test: GOB-1 inhibition assay with nitrocefin as substrate; details: Subclass B3 MBL, enzyme 2.69 μM, 100 μM nitrocefin, 5 minute pre-incubation
Sequence of GOB-1 (Q9RB00 entry or part of it): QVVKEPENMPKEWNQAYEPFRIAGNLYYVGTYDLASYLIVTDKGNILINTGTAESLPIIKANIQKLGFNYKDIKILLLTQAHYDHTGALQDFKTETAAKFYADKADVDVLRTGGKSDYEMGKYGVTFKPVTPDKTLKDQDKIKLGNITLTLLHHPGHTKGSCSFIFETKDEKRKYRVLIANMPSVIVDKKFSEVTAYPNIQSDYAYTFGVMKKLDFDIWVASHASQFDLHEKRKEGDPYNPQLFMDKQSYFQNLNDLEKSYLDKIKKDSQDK
From the text: as §1, §2

[1] = Subclass B1 MBL, enzyme 263 nM, 100 μM nitrocefin, 5 minute pre-incubation, read-out: IC50 NDM-1

Sequence of NDM-1 (C7C422 30-270 limits assumed, looked up): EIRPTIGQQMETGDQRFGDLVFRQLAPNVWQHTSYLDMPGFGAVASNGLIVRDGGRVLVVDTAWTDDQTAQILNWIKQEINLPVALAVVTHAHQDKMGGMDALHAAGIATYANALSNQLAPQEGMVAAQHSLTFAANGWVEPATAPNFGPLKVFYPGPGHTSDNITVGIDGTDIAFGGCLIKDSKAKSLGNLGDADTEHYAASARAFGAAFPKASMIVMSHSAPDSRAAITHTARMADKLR

SMILES	IC50 (NDM-1; [1]) [µM]	IC50 (IMP-1) [µM]	IC50 (VIM-2) [µM]	IC50 (GIM-1) [µM]	IC50 (CphA) [µM]	IC50 of CphA relative to that for DCPBA (CphA)	IC50 (GOB-1) [µM]	IC50 (GIM-1; Subclass B1 MBL, enzyme 662 nM, 100 μM nitrocefin, 5 minute pre-incubation, read-out: IC50 GIM-1) [µM]	IC50 (CphA; Subclass B2 MBL, enzyme 157 nM, 100 μM nitrocefin, 5 minute pre-incubation, read-out: IC50 CphA) [µM]	IC50 (NDM-1; NDM-1 263 nM, nitrocefin 100 μM, 50 mM MES pH 7.0, 5 min pre-incubation at 30° C., read-out: IC50 values on NDM-1 of the screened compounds) [µM]
Nc1ccc(Oc2c(Cl)cc(B(O)O)cc2Cl)cc1Cl [ACP-DCPBA, (4-(4-amino-3-chlorophenoxy)-3,5-dichlorophenyl)boronic Acid]	78.78 ± 0.01	738.41 ± 0.01	22.78 ± 0.01	144.64 ± 0.01	90.19 ± 0.01	six-fold lower	790.24 ± 0.02	–	–	–
OB(O)c1cc(Cl)c(Oc2ccc(Cl)cc2O)c(Cl)c1 [CHP-DCPBA, (3,5-dichloro-4-(4-chloro-2-hydroxyphenoxy)phenyl)boronic acid]	37.77 ± 0.01	468.3 ± 0.01	15.15 ± 0.01	–	–	six-fold lower	468.5 ± 0.01	81.35 ± 0.03	80.81 ± 0.01	–
OB(O)c1cc(Cl)cc(Cl)c1 [Compound 1, 3,5-Dichlorophenylboronic Acid]	–	738.88 ± 0.01	27.33 ± 0.01	144.64 ± 0.01	530.87 ± 0.02	–	798.9 ± 0.02	–	–	79.9

From patent publication US11395829B2, “Inhibitors of metallo-beta-lactamases produced by multidrug-resistant bacteria” (MYONGJI UNIVERSITY INDUSTRY AND ACADEMIA COOPERATION …, priority 2019, dated 2022)
